7 molecules from ChEMBL document CHEMBL2331198, “Identification of small-molecule inhibitors of the human S100B-p53 interaction and evaluation of their activity in human melanoma cells” (Bioorg Med Chem, 2013) can be followed below.

Activity calls are given as the source filed them. The calls are words filed in the database; no cut-off is given here.

Experiment [1] addresses T1, Protein S100-B (Homo sapiens) (UniProt P04271).
T1 sequence (whole entry): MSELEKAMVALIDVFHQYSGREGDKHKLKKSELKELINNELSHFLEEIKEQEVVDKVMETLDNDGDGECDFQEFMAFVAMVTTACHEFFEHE
Briefly: Inhibition of human S100B/humanTAMRA-p53(367-388) interaction assessed as inhibition rate at 50 uM by fluorescence polarization assay. For orientation: Polarisation of emitted light reports the rotation of a fluorescent probe.

Experiment [2] concerns the target T1, Protein S100-B (Homo sapiens). Briefly: Inhibition of human S100B/humanTAMRA-p53(367-388) interaction by In situ proximity ligation assay.
The target in the next experiment is T2, Protein S100-B (Homo sapiens, UniProt P04271).
T2 sequence (P04271 whole entry): T1 sequence (whole entry)
The experiment in a line: Inhibition of human S100B/human TAMRA-p53(367-388) interaction by fluorescence polarization assay.

For another experiment, the system named is WM-115. Briefly: Cytotoxicity against human WM115 cells assessed as growth inhibition measured after 72 hrs by crystal violet assay. The class given is functional, cell-based. Particulars: WM-115, 72 h.
In experiment [3] the target is T1, Protein S100-B (Homo sapiens). Briefly: Inhibition of human S100B/humanTAMRA-p53(367-388) interaction assessed as inhibition rate at 93 uM by fluorescence polarization assay.

As usually defined, the inhibition is the change of the read-out against control, counted positive when it falls. As to `CN1CCN(c2ccc(N)c(N3CCN(C)CC3)c2)CC1`, the inhibition in experiment [1] was less than 50%.
The term IC50 denotes the concentration that inhibits the measured activity by half. Broadly, the Ki is the dissociation constant of the complex between target and ligand, obtained from inhibition or displacement. As for `Nc1ccc(N2CCCCC2)cc1N1CCCCC1`, the inhibition entry in experiment [2] is “Active”. Moreover, the IC50 at Protein S100-B was 2 µM; with WM-115, 4.9 µM. The Ki on Protein S100-B was less than 1 µM.
As to `N=C(N)c1ccc(OCCCCCOc2ccc(C(=N)N)cc2)cc1` [PENTAMIDINE], the values for the IC50 on Protein S100-B and in the experiment with WM-115 were more than 100 µM and 4.8 µM, respectively. For the same molecule, the inhibition in experiment [3] came to 14.2%.
On Protein S100-B, `CCN(CC)c1ccc(N)c(C)c1` had an IC50 of 8.4 µM and an inhibition constant Ki of 5 µM. Also, the IC50 in the experiment on WM-115 is 8.5 µM.
Turning to `Nc1ccc(N2CCNCC2)cc1`, in experiment [1], the inhibition was less than 50%.
`Nc1cc(N2CCCCC2)ccc1N1CCCCC1`: at Protein S100-B, the IC50 was 31.5 µM and the Ki was determined as 25.1 µM. For the same molecule, in the experiment on WM-115, the IC50 was 36.4 µM.
Consider `COc1ccc(/C=N/c2ccc(O)cc2)cc1`, for which the IC50 on Protein S100-B worked out at 36.3 µM.
